Assay [1] deals with T1, PR-A (Mus musculus, UniProt Q00175).
T1 construct: endogenous in cells; host or cells: primary mouse mammary epithelial cells (MECs) from p53 and BRCA1/p53 conditional knockout mammary glands
T1 sequence (Q00175 1-761 isoform Q00175-2): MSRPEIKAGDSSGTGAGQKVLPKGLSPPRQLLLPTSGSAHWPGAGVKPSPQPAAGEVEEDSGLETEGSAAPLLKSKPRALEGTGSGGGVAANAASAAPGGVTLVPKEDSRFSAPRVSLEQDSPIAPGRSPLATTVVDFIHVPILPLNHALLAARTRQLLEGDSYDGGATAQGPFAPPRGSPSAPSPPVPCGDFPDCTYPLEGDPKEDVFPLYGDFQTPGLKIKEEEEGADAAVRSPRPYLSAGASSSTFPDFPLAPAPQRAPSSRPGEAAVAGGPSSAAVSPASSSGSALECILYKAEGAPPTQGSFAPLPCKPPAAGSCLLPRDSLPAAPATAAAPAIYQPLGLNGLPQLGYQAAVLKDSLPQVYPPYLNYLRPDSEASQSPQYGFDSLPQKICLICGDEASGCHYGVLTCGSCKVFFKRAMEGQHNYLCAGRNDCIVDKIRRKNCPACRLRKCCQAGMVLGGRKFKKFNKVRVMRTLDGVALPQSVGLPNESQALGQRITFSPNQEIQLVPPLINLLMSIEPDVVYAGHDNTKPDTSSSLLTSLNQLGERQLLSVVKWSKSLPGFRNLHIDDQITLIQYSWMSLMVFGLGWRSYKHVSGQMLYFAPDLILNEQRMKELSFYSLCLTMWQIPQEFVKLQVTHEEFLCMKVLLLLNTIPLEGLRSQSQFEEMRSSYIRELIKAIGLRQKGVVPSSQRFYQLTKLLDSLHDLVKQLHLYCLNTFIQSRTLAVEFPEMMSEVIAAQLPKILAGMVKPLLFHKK
Description: Determination of PR half-life in MECs with cyclohexamide and R5020. It is filed as cell-based. The conditions noted are these: 10 nM R5020, 100 μg/ml cyclohexamide. The text has this: (§1) MEC cultures from BRCA1^Δ11p53^Δ5&6 and p53^Δ5&6 mammary glands of two-month-old mice when MECs are histologically normal were created. The amount of PR protein, determined by western blotting, was 3-fold higher in BRCA1^Δ11p53^Δ5&6 than in p53^Δ5&6 MECs (FIG. 2D, lanes 1, 3). To further establish that PR protein stability is modulated by a proteasome pathway, MECs were exposing to MG132. PR-A was stabilized in p53^Δ5&6 but not in BRCA1^Δ11p53^Δ5&6 MECs (FIG. 2D, lanes 2, 4).
(§2) One day after plating, proliferating sub-confluent MECs or T47D cells were treated with 10 μM MG132 (BioMol Research Laboratories, Plymouth Meeting, Pa.) for 4 hr. Vehicle DMSO was added to the medium of untreated control cells. For the half-life study, 100 μg/ml of cyclohexamide (Sigma) was used and cells were harvested 0-6 hours after the addition of cyclohexamide. Cells were washed in PBS and protein lysates were prepared as described above.

For assay [2], the system named is PR-A. Description: Inhibition of proteasome degradation: PR-A and ERα levels in T47D cells with siLuc or siBRCA1 (western blotting). It is filed as cell-based, human. As for the experimental part: To further test whether BRCA1 specifically affects PR stability, adenoviral siRNA-mediated knockdown of BRCA1 was introduced to T47D cells. […] In the absence of a ligand, PR-A was very stable and no significant differences were detected between siLuc and siBRCA1 knockdown cells (FIG. 3A, lanes 5, 6). The amount of PR-B was analyzed by immunoprecipitation followed by western blot (FIG. 8). Depletion of BRCA1 by adenoviral siRNA led to PR-A and PR-B accumulation.
as §2

The test system of assay [3] is PR-A. Briefly: Inhibition of proteasome degradation: PR protein level in mouse MECs (western blotting). It is filed as cell-based. The conditions noted are these: 10 μM MG132 for 4 hr.
Description: as §1, §2
On the technique in general: Immunoblotting shows a protein as a band on a membrane.

In assay [4] the test system is mammary epithelial cells (MECs). Briefly: Hormone-induced proliferation of mammary epithelial cells in ovariectomized mice (BrdU incorporation). The assay is classed as in vivo, mouse. The settings on record: 1 mg progesterone daily for 3 days. As for the experimental part:
MEC proliferation peaks at the estrous phase when progesterone level is highly elevated. To assess the contribution of steroid hormones to MECs proliferation an ovariectomy was performed to deplete circulating estrogen and progesterone. Since PR is one of the downstream target genes of ER, progesterone activity was targeted. Two weeks after ovariectomy mice were treated with progesterone daily for 3 days followed by BrdU pulse labeling. In control vehicle treated mice, no BrdU-positive MECs were found in ovariectomized wt, and p53^Δ5&6 gland, but ducts containing one or two BrdU-positive cells were detected in BRCA1^Δ11p53^Δ5&6 mammary glands (FIG. 2A). Elevated proliferation seen under ovarian hormone depletion is related to the ligand-independent activation of PR in BRCA1-deficient cells. Importantly, a higher number of BrdU-positive MECs was found in BRCA1^Δ11p53^Δ5&6 mammary glands upon exposure to progesterone; ducts containing up to 6 BrdU-positive cells were identified (FIG. 2A).
Two weeks before steroid hormone treatment animals were bilaterally ovariectomized Mammary glands were stimulated to proliferate with daily subcutaneous injections of either 1 μg of estradiol (E2758, Sigma, St. Louis, Mo.) or 1 mg of progesterone (P8783, Sigma, St. Louis, Mo.) for 3 days. Untreated mice were used as controls.
Background: Uptake of a labelled nucleoside into DNA is a usual measure of proliferation.

Assay [5] concerns BRCA1^Δ11p53^Δ5&6 conditional knockout mice (mammary tumors). Briefly: Pellet implantation and weekly monitoring for mammary tumor formation in BRCA1/p53 deficient mice. The assay is classed as in vivo, mouse. The conditions noted are these: for mammary tumorigenesis / tumor formation (in words): 35 mg/60 day constant release pellet. As for the experimental part: (§3) As progesterone is a potent mitogen for BRCA1^Δ11p53^Δ5&6 MECs specifically it was tested whether blocking PR signaling by anti-progesterone will prevent or delay mammary carcinogenesis in BRCA1^Δ11p53^Δ5&6 conditional knockout mice. An anti-progesterone pellet containing 35 mg/60 days constant release mifepristone or placebo pellet was implanted into twelve 3- and two 4-month-old mice. Mice were monitored weekly for tumor formation. The median tumor latency of BRCA1^Δ11p53^Δ5&6 conditional knockout mice was 6.6 months (n=25) with complete penetrance (FIG. 4A). All control mice or placebo pellet treated mice developed palpable tumor by 8.7 or 5.2 months of ages (n=4), respectively. […] The effects of on ductal branching and alveolar expansion were determined using mammary gland whole mounts and histological sections. […] Only 33±7 ducts in an approximate area of 0.012 mm^2 were identified in-treated mice while 678±49 ducts were found in placebo pellet-treated mice. Dramatic inhibition of tumorigenesis was also seen with the implantation of 35 mg time release (60 day) pellets of CDB-2914. […] CDB-2914 shares structural similarity with mifepristone and binds competitively to PR with high affinity.
Nulliparous mature BRCA1^Δ11/p53^Δ5&6 female mice, age 14-20 weeks, were anesthetized and pellets containing either 35 mg/60-day constant release of mifepristone (M8046, Sigma, St. Louis, Mo.) or placebo pellets (Innovative Research of America, Sarasota, Fla.) were implanted in the lateral side of the neck. Mice were monitored weekly for mammary tumors.
This Example describes the early administration of Progesterone Receptor antagonists to mice with a BRCA1 mutation to prevent or delay the development of tumors.
An effective development window for prevention treatment has also been shown for RU-486 (data not shown). I would appear that the time window for treatment is important.

The test system of assay [6] is BRCA1^Δ11p53^Δ5&6 mammary glands. Description: Mammary gland whole mounts and histological sections: ductal branching and alveolar expansion. The assay is classed as in vivo, mouse. The protocol:
as §3
The mammary gland was removed and flattened on paraffin paper and fixed in Carnoy's fixative (60% of absolute ethanol, 30% CHCl3, 10% HOAc) for 3 hr. It was subsequently hydrated through a series of solutions with decreasing concentrations of ethanol, and stained in carmine solution (1 g carmine, 2.5 g aluminum potassium sulfate/500 ml of water) overnight. The gland was dehydrated through a series of solutions with increasing ethanol concentrations, 50-100%, washed in xylene twice, and mounted on a slide.

For assay [7] the test system is unchanged. Briefly: Immunostaining for cleaved caspase 3 in treated mammary glands. It is filed as in vivo, mouse. The conditions noted are these: 3 wk or 5 wk post pellet implantation.
The subject of assay [8] is BRCA1^Δ11p53^Δ5&6 conditional knockout mice (mammary tumors). Description: Pellet implantation and weekly monitoring for mammary tumor formation in BRCA1/p53 deficient mice. The settings on record: 5 mg/60 days constant release pellet. The assay is classed as in vivo, mouse.
In the next assay the target is T2, PR (Homo sapiens, UniProt P06401).
T2 sequence (P06401 1-933): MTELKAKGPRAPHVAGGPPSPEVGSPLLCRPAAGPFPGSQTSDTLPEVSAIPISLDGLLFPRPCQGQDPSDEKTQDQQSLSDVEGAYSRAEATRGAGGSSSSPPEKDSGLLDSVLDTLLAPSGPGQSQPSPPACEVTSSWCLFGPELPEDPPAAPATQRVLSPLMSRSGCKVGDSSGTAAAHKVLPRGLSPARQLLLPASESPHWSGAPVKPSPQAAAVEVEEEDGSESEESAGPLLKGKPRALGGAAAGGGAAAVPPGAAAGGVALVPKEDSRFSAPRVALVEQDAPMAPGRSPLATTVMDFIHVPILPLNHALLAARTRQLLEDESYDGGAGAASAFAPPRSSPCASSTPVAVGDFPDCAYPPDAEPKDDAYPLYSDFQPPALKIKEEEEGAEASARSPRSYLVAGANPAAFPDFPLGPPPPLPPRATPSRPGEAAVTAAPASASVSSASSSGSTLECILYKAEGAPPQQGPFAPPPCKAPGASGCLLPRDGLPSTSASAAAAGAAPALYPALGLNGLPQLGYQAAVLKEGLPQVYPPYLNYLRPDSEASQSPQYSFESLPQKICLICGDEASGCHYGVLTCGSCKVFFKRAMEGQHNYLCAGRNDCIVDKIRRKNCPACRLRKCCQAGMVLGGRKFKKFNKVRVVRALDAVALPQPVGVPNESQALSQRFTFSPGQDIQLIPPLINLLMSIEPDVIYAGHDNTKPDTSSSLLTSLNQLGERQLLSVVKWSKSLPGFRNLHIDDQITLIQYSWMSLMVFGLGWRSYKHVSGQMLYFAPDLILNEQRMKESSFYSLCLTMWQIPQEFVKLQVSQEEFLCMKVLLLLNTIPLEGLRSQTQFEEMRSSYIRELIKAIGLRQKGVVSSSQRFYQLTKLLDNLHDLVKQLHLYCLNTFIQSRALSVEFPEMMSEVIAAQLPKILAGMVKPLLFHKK
The conditions noted are these: cited from earlier work.

“Also recorded” adds a separate entry of the source. Peptide text beside a SMILES is read from it. * marks the point of attachment. Cbz = O=C(OCc1ccccc1)*

With `CCC(=O)[C@@]1(C)CC[C@H]2[C@@H]3CCC4=CC(=O)CCC4=C3CC[C@@]21C` [R5020], at PR-A [1] (BRCA1^Δ11p53^Δ5&6 MECs), the “PR-A present at 6 hr post R5020 treatment” value amounted to 90%. Further, the “half-life of PR-A” value on PR-A [1] (p53^Δ5&6 MECs) was found to be 2.8 h.
Consider `CC(C)C[C@@H](C=O)NC(=O)[C@H](CC(C)C)NC(=O)[C@H](CC(C)C)NC(=O)OCc1ccccc1` [MG132] (Cbz-Leu-Leu-Leu-aldehyde), for which the “PR-A density (western blot)” value in the assay on PR-A [2] (control siLuc infected cells, with R5020, 1.0 without MG132) was determined as 3.8; with PR-A [2] (siBRCA1 infected cells, with R5020, 3.2 without MG132), 3.6. Besides, the ERα stabilization result with PR-A [2] (siLuc or siBRCA1 knockdown cells) was “stabilized to a similar extent”. Besides, the PR-A stabilization result with PR-A [3] (BRCA1^Δ11p53^Δ5&6 MECs) is given as “not”; in the assay on PR-A [3] (p53^Δ5&6 MECs) it was “stabilized”.
For `CC(=O)[C@H]1CC[C@H]2[C@@H]3CCC4=CC(=O)CC[C@]4(C)[C@H]3CC[C@]12C` [progesterone], the “BrdU-positive cells per duct” value in [4] (BRCA1^Δ11p53^Δ5&6 mammary glands) was “up to 6”. Besides, in assay [4] (wt or p53^Δ5&6 mammary gland), the “BrdU-positive cells in the majority of MECs” value was “did not contain BrdU-positive cells”.
With `CC#C[C@]1(O)CC[C@H]2[C@@H]3CCC4=CC(=O)CCC4=C3[C@@H](c3ccc(N(C)C)cc3)C[C@@]21C` [mifepristone], the “mammary tumorigenesis / tumor formation (in words)” value in [5] (BRCA1/p53 deficient mice) is “effective prevention of tumor formation; also recorded: prevents tumorigenesis; also recorded: inhibits mammary tumorigenesis”. Further, the “palpable tumors at 12 months of age” value in assay [5] (35 mg/60 days constant release pellet implanted at 3-4 months, n=14, BRCA1^Δ11p53^Δ5&6 mice) is given as “no palpable tumors were detected”. For the same compound, in assay [6] (five weeks of treatment, 35 mg/60-day pellet), the “side branches of mammary glands” value is “substantial reduction”. Also, the “ducts in an approximate area of 0.012 mm^2” value in assay [6] (five weeks of treatment, 35 mg/60-day pellet, placebo 678±49) was determined as 33±7 ducts. The “apoptotic cells (cleaved caspase 3)” value in [7] is “few apoptotic cells”.
As for `CC(=O)O[C@]1(C(C)=O)CC[C@H]2[C@@H]3CCC4=CC(=O)CCC4=C3[C@@H](c3ccc(N(C)C)cc3)C[C@@]21C` [CDB-2914, 17α-acetoxy-11β-(4-N,N-dimethylaminophenyl)-19-norpregna-4,9-diene-3,20-dione], in [5] (35 mg time release (60 day) pellet, BRCA1/p53 deficient mice, age 14 weeks, n=4), the “inhibition of tumors compared to control implants” value stood at 100%. For the same compound, the “mammary tumorigenesis / tumor formation (in words)” value in [5] (BRCA1/p53 deficient mice) was “has a preventative effect; also recorded: inhibits mammary tumorigenesis; also recorded: effective in delaying mammary tumors”. In addition, the “development of palpable tumors” value is recorded as “delayed development of palpable tumors” in assay [5] (two-month-release pellet implanted before 14 weeks of age, n=4) and “failed to do so” in assay [5] (two-month-release pellet placed after 15 wks). Besides, in [6] (Brca1^f/fp53^f/fCrec mouse, 7.0-month-old, 35 mg/60 day pellet at 14-wk-old), the “ductal branching of the mammary gland” value is listed as “inhibits ductal branching”. Further, the “efficacy in tumor prevention (in words)” value in assay [8] is “failed to show any efficacy”. For the same compound, the other receptor properties result at PR was “anti-glucorcorticoid and anti-androgen properties”. On PR (competitive), the “binding to PR” value is “high affinity”.

The values are drawn from patent US9517240B2, “Methods and compositions for cancer prevention and treatment” (THE REGENTS OF THE UNIVERSITY OF CALIFORNIA, priority 2006, dated 2016).
